From patent publication US20240123022A1, “A STABLE ANTI-ANGIOGENIC AND ANTI-INFLAMMATORY PHARMACEUTICAL FORMULATION AND PHARMACEUTICAL COMBINATION FOR TREATMENT AND PREVENTION OF PSORIASIS” (priority 2021, published 2024)

How the values were obtained:
[1] = system: human keratinocytes (HaCaT) cells; test: Annexin-V externalization (pro-apoptotic effect); type: cell-based; details: 48 h, vs control
Protocol: Pro-apoptotic effect of IS217 was evaluated in human keratinocytes (HaCaT) cells by using the Annexin-V externalization. In this study, cells were plated and incubated for about 24 hours by using dulbecco's modified eagle's medium (DMEM) with about 10% fetal bovine serum (FBS) and cells were sera starved using about 0.1% FBS for about 3 hours. HaCaT cells were treated with IS217 at about 0 hours and about 24 hours in concentration range of from about 100 μg/ml to about 5000 μg/ml and incubated for about 24 hours. Curcumin (1 μM-50 μM) was used as positive control. After about 48 hours of first treatment, cells were incubated with Annexin-V reagent and subsequently analyzed by flow cytometry (Guava technologies) for identification of cells population.

HUVEC cells = type: cell-based, human; details: 100-1000 μg/ml
Protocol: The study was performed to determine anti-angiogenic effect of IS217 in HUVEC cell line by assessing anti-proliferative effects of test item. Here XTT assay was used to determine the cell viability in test cells. HUVEC cells were treated with the test item IS217 (100-1000 μg/ml) and bevacizumab (1 mg/ml) concentrations was used as positive controls.

[2] = Plasma stability in human plasma; type: in vitro ADME
Protocol: Following centrifugation, the supernatant was analyzed on HPLC-UV.

[3] = system: Imiquimod (IMQ) induced psoriasis model using Balb/c mice; test: IMQ induced psoriasis model, routes of administration (SC, IM, IV, IP); type: in vivo; details: for TNF-α reduced to / reduction in IL-23: ear homogenate
Protocol: The study was conducted in healthy, adult female Balb/c mice. All the animals were acclimatized to laboratory condition prior to experiment initiation.
Animals were randomized into 10 groups containing 6 animals each group, based on their body weight. Approximately 63 mg of IMQ cream (5%) (containing 3.125 mg of IMQ) was weighed and applied topically each on dorsal area (shaved back) and right ear of mice for 8 days in group 3-10. Groups 1 and 2 were served as controls and were treated with appropriate vehicle. Later groups 1 and 2 were merged for better calculation purpose.
Body weight, ear thickness and dorsal skin thickness was measured daily using digital caliper. Erythema index was recorded by mexameter and clinical scoring was also done daily for dorsal psoriatic area.
On day 9, animals were anesthetized for blood collection followed by euthanasia by C02 asphyxiation as per in-house approved standard protocol.
About 4 mm ear punch biopsy was collected, weighed and fixed in about 10% neutral buffer formalin for histopathological analysis (via H and E staining). Remaining ear was excised and stored at about −80° C. for inflammatory cytokine analysis. Dorsal skin was also collected, and half was kept in formalin. Spleen was also collected and weighed and kept in formalin.
In this study three different routes i.e., SC, IM and IV at different doses ranging from 0.3, 0.6 and 1.2 mg/kg were used to see dose response curve, the results were as follows: […]

[4] = system: TPA induced ear inflammation model in C57BL/6 mice; test: IS217 alone and in combination with methotrexate and betamethasone in TPA induced ear inflammation model; type: in vivo
Protocol: The experimental procedure, doses and route of administration were same as IMQ model. Test item IS217 was administered subcutaneously either alone or in combination with standard methotrexate (MTX) and betamethasone (BD) to diseased animals.

[5] = Stability of IS217 1% cream, long term 30° C. ± 2° C./65% RH; type: physicochemical; details: 24 months at room temperature
Protocol: The purpose of stability testing is to provide evidence on how the quality of a drug product varies with time under the influence of a variety of environmental factors such as temperature, humidity, etc. and to establish a re-test period for the drug substance or a shelf life for the drug product and recommended storage conditions. The study was conducted according to the WHO and schedule-Y guidelines.
The drug product was manufactured by Issar Pharma. Three batches were manufactured at pilot scale level by the same synthetic route as, and using a method of manufacture and procedure that simulates the final process to be used for, production batches. The overall quality of the batches of drug product placed on these stability studies will be representative of the quality of the material to be made on a production scale.
A soft squeezable plastic tube will be used as primary packing material. The tube is a cylindrical, hollow piece with a rounded shape design.
This study has included testing of those attributes of the drug product that are susceptible to change during storage and are likely to influence quality, safety and/or efficacy. The testing was covered, as appropriate, the physical and chemical attributes. […]

[6] = IS217 SC 1.2 mg/kg q.d., 10 days

## H-FAKKFAKKFK-OH [IS217, H-Phe-Ala-Lys-Lys-Phe-Ala-Lys-Lys-Phe-Lys-OH]
[1]; 100 μg/ml
  increase in necrotic cells: 3.6 fold
[1]; 1000 μg/ml
  increase in late apoptotic cells: 1.7 fold
[1]; 2000 μg/ml
  increase in late apoptotic cells: 3.4 fold
  increase in necrotic cells: 1.4 fold
[1]; 5000 μg/ml
  increase in late apoptotic cells: 5.6 fold
  increase in necrotic cells: 3.1 fold
[1]; HaCaT, 100-5000 μg/ml
  increase in early apoptotic cells: no increase
HUVEC cells
  percentage inhibition of FBS induced proliferation of HUVEC cells: effective upto 1000 μg/ml only
[2]; human plasma, 15 minutes, read-out: IS217 remaining
  remaining at 0.25 h, 100 μg/ml: 90.7%
[2]; human plasma, 30 minutes, read-out: IS217 remaining
  remaining at 0.5 h, 100 μg/ml: 105%
[2]; human plasma, 45 minutes, read-out: IS217 remaining
  remaining at 0.75 h, 100 μg/ml: 85.2%
[2]; human plasma, 60 minutes, read-out: IS217 remaining
  remaining at 1 h, 100 μg/ml: 91.1%
[2]; human, plasma
  plasma stability: stable in human plasma
[2]; human, plasma, from 60 minutes incubation, read-out: calculated half-life in human plasma
  half-life at 100 μg/ml: 6.92 h
[3]; 0.3 mg/kg SC, day 9, vs other doses and routes
  ear biopsy weight: maximum effect
[3]; 0.3 mg/kg SC, p < 0.01
  hyperkeratosis, edema, inflammatory cell infiltration and ear thickness in histopathology examination of ear: reduced
[3]; 0.6 mg/kg
  TNF-α reduced to: 13.94%
  reduction in IL-23: 49.68%
[3]; 1.2 mg/kg SC
  TNF-α level in ear tissue homogenate: partially reduced
[3]; 1.2 mg/kg SC, p < 0.01
  TNF-α and IL-23 levels, rete peg proliferation in histopathology examination of ear: dose lowered
[3]; 1.2 mg/kg dose
  absolute ear thickness reduction, maximum inhibition: 80.36%
[3]; 1.2 mg/kg
  TNF-α reduced to: 24.25%
  reduction in IL-23: 59.85%
[3]; 0.3-1.2 mg/kg SC, by all above observations
  reduction of IL-23 levels: prominent dose dependent results
[3]; IM route
  percentage inhibition of ear inflammation, maximum inhibitory activity: 59.12%
[3]; IS217 SC, IM, IV, IP, 8 days
  body weight: No significant change
[3]; IV treatment
  IL-17 in ear tissue homogenate: maximum inhibition
[3]; IV treatment group, not statistically significant
  spleen weight reduction: maximum reduction
[3]; SC treatment groups
  spleen weight reduction: No effect
[3]; SC, low dose of 0.3 mg/kg
  IMQ induced hyperkeratosis, edema, Rete Peg proliferation, inflammatory cell infiltration (ear histopathology): maximum reduction
[3]; any treatment group
  cumulative psoriatic score of dorsal area: No significant reduction
  erythema index: No significant reduction
[3]; low dose, from day 6
  percentage inhibition of ear inflammation, maximum inhibitory response: 32.08%
[3]; mouse, in vivo
  IL-17A and spleen weight: no trend
[4]; IS217 (1.2 mg/kg) < MTX (1.5 mg/kg), p < 0.01
  ear thickness (absolute, histopathology, ear punch biopsy): Decreased ear
[4]; [6]
  edema and hyperkeratosis: IS217 decreased
  inflammatory cytokines in ear homogenate (ELISA and histopathology score) IL-23, IL-6, TNF-α and MPO: IS217 decreased
[4]; IS217 alone (SC 1.2 mg/kg q.d. per Table 6)
  inhibitory activity against TPA induced increase in ear thickness: 44.77%
[4]; TPA model combination study
  effect in combination with MTX: good effect
[4]; alone as well as in combination with standard drugs
  absolute ear thickness: significant reduction
[5]
  stability of drug product (1% cream): stable
HUVEC
  inhibition of healthy unstimulated cells (CC50 experiment): no inhibition
HUVEC; VEGF stimulated
  inhibition of VEGF stimulated HUVEC cells: dose dependent inhibition
other
  Shelf life of IS217 API: about 2 years
0.9% sodium chloride
  appearance of reconstituted solution: clear and colourless
Reconstitution with 0.9% sodium chloride
  Dissolution of the lyophilized powder completed in: less than 2 minutes
